The source made the active and inactive calls. How the calls were made is not given here.
Tested on: CCRIS mutagenicity, Ames/micronucleus/aberration tests
Test: CCRIS mutagenicity studies
[1] = Test System: AMES SALMONELLA TYPHIMURIUM, Strain/Indicator: TA98, Metabolic Activation: RAT, LIVER, S-9, AROCLOR 1254, Method: STANDARD PLATE
[2] = Test System: AMES SALMONELLA TYPHIMURIUM, Strain/Indicator: TA98, Metabolic Activation: NONE, Method: PREINCUBATION
[3] = Test System: AMES SALMONELLA TYPHIMURIUM, Strain/Indicator: TA100, Metabolic Activation: NONE, Method: PREINCUBATION
[4] = Test System: AMES SALMONELLA TYPHIMURIUM, Strain/Indicator: TA98, Metabolic Activation: NONE, Method: STANDARD PLATE
[5] = Test System: AMES SALMONELLA TYPHIMURIUM, Strain/Indicator: TA1535, Metabolic Activation: NONE, Method: PREINCUBATION

Measured: mutagenic call

O=C(c1ccccc1)N(O)c1ccc2c(c1)Cc1ccccc1-2
active: [1] active; positive

C[C@H](N)C(=O)c1ccccc1
active: End Point: In vivo chromosomal aberrations, Test System: Blood from cardiac puncture, Species: Rat, Strain/Sex: Sprague-Dawley/Male, Route: Oral active; positive (high dose significantly different from control and low dose)

CC(C)(C)OOC1(C)C=C(C(C)(C)C)C(=O)C(C(C)(C)C)=C1
inactive: [2] inactive; negative | Test System: AMES SALMONELLA TYPHIMURIUM, Strain/Indicator: TA98, Metabolic Activation: RAT, LIVER, S-9, Method: PREINCUBATION inactive; negative | [3] inactive; negative | Test System: AMES SALMONELLA TYPHIMURIUM, Strain/Indicator: TA100, Metabolic Activation: RAT, LIVER, S-9, Method: PREINCUBATION inactive; negative

COc1ccc2c(OC)c3ccoc3nc2c1OC
inactive: Test System: AMES SALMONELLA TYPHIMURIUM, Strain/Indicator: TA1535, Metabolic Activation: RAT, LIVER, MICROSOMES, PHENOBARBITAL, Method: STANDARD PLATE inactive; negative | Test System: AMES SALMONELLA TYPHIMURIUM, Strain/Indicator: TA1538, Metabolic Activation: RAT, LIVER, MICROSOMES, PHENOBARBITAL, Method: STANDARD PLATE inactive; negative
active: Test System: AMES SALMONELLA TYPHIMURIUM, Strain/Indicator: TA98, Metabolic Activation: RAT, LIVER, MICROSOMES, PHENOBARBITAL, Method: STANDARD PLATE active; positive | Test System: AMES SALMONELLA TYPHIMURIUM, Strain/Indicator: TA98, Metabolic Activation: RAT, LIVER, S-9, PHENOBARBITAL, Method: STANDARD PLATE active; positive | Test System: AMES SALMONELLA TYPHIMURIUM, Strain/Indicator: TA100, Metabolic Activation: RAT, LIVER, MICROSOMES, PHENOBARBITAL, Method: STANDARD PLATE active; positive | Test System: AMES SALMONELLA TYPHIMURIUM, Strain/Indicator: TA100, Metabolic Activation: RAT, LIVER, S-9, PHENOBARBITAL, Method: STANDARD PLATE active; positive

FCC1CO1 (stereo not given)
inactive: Test System: AMES SALMONELLA TYPHIMURIUM, Strain/Indicator: TA98, Metabolic Activation: HAMSTER, LIVER, S-9, AROCLOR 1254 (30%), Method: PREINCUBATION inactive; negative | [2] inactive; negative | Test System: AMES SALMONELLA TYPHIMURIUM, Strain/Indicator: TA98, Metabolic Activation: RAT, LIVER, S-9, AROCLOR 1254 (30%), Method: PREINCUBATION inactive; negative
active: Test System: AMES SALMONELLA TYPHIMURIUM, Strain/Indicator: TA100, Metabolic Activation: HAMSTER, LIVER, S-9, AROCLOR 1254 (30%), Method: PREINCUBATION active; positive | [3] active; positive | Test System: AMES SALMONELLA TYPHIMURIUM, Strain/Indicator: TA100, Metabolic Activation: RAT, LIVER, S-9, AROCLOR 1254 (30%), Method: PREINCUBATION active; positive

COc1ccc(S(=O)(=O)n2ncc(Cl)c(Cl)c2=O)cc1
inactive: [4] inactive; negative | [1] inactive; negative | Test System: AMES SALMONELLA TYPHIMURIUM, Strain/Indicator: TA100, Metabolic Activation: NONE, Method: STANDARD PLATE inactive; negative | Test System: AMES SALMONELLA TYPHIMURIUM, Strain/Indicator: TA100, Metabolic Activation: RAT, LIVER, S-9, AROCLOR 1254, Method: STANDARD PLATE inactive; negative | Test System: AMES SALMONELLA TYPHIMURIUM, Strain/Indicator: TA1535, Metabolic Activation: NONE, Method: STANDARD PLATE inactive; negative | Test System: AMES SALMONELLA TYPHIMURIUM, Strain/Indicator: TA1535, Metabolic Activation: RAT, LIVER, S-9, AROCLOR 1254, Method: STANDARD PLATE inactive; negative | Test System: AMES SALMONELLA TYPHIMURIUM, Strain/Indicator: TA1537, Metabolic Activation: NONE, Method: STANDARD PLATE inactive; negative | Test System: AMES SALMONELLA TYPHIMURIUM, Strain/Indicator: TA1537, Metabolic Activation: RAT, LIVER, S-9, AROCLOR 1254, Method: STANDARD PLATE inactive; negative

Cc1oc(=O)oc1COC(=O)[C@@H]1N2C(=O)[C@@H](NC(=O)[C@H](N)c3ccccc3)[C@H]2SC1(C)C
inactive: [2] inactive; negative | Test System: AMES SALMONELLA TYPHIMURIUM, Strain/Indicator: TA98, Metabolic Activation: RAT, LIVER, S-9, PHENOBARBITAL AND 5,6-BENZOFLAVONE, Method: PREINCUBATION inactive; negative | [3] inactive; negative | Test System: AMES SALMONELLA TYPHIMURIUM, Strain/Indicator: TA100, Metabolic Activation: RAT, LIVER, S-9, PHENOBARBITAL AND 5,6-BENZOFLAVONE, Method: PREINCUBATION inactive; negative | [5] inactive; negative | Test System: AMES SALMONELLA TYPHIMURIUM, Strain/Indicator: TA1535, Metabolic Activation: RAT, LIVER, S-9, PHENOBARBITAL AND 5,6-BENZOFLAVONE, Method: PREINCUBATION inactive; negative | Test System: AMES SALMONELLA TYPHIMURIUM, Strain/Indicator: TA1537, Metabolic Activation: NONE, Method: PREINCUBATION inactive; negative | Test System: AMES SALMONELLA TYPHIMURIUM, Strain/Indicator: TA1537, Metabolic Activation: RAT, LIVER, S-9, PHENOBARBITAL AND 5,6-BENZOFLAVONE, Method: PREINCUBATION inactive; negative | Test System: AMES SALMONELLA TYPHIMURIUM, Strain/Indicator: TA1538, Metabolic Activation: NONE, Method: PREINCUBATION inactive; negative | Test System: AMES SALMONELLA TYPHIMURIUM, Strain/Indicator: TA1538, Metabolic Activation: RAT, LIVER, S-9, PHENOBARBITAL AND 5,6-BENZOFLAVONE, Method: PREINCUBATION inactive; negative | Test System: E. COLI, Strain/Indicator: WP2 UVRA, Metabolic Activation: NONE, Method: PREINCUBATION inactive; negative | Test System: E. COLI, Strain/Indicator: WP2 UVRA, Metabolic Activation: RAT, LIVER, S-9, AROCLOR 1254, Method: PREINCUBATION inactive; negative

OCCCCl
inactive: Test System: AMES SALMONELLA TYPHIMURIUM, Strain/Indicator: TA97, Metabolic Activation: HAMSTER, LIVER, S-9, AROCLOR 1254 (10%), Method: PREINCUBATION inactive; negative | Test System: AMES SALMONELLA TYPHIMURIUM, Strain/Indicator: TA97, Metabolic Activation: NONE, Method: PREINCUBATION inactive; negative | Test System: AMES SALMONELLA TYPHIMURIUM, Strain/Indicator: TA97, Metabolic Activation: RAT, LIVER, S-9, AROCLOR 1254 (10%), Method: PREINCUBATION inactive; negative | Test System: AMES SALMONELLA TYPHIMURIUM, Strain/Indicator: TA98, Metabolic Activation: HAMSTER, LIVER, S-9, AROCLOR 1254 (10%), Method: PREINCUBATION inactive; negative | [2] inactive; negative | Test System: AMES SALMONELLA TYPHIMURIUM, Strain/Indicator: TA98, Metabolic Activation: RAT, LIVER, S-9, AROCLOR 1254 (10%), Method: PREINCUBATION inactive; negative | Test System: AMES SALMONELLA TYPHIMURIUM, Strain/Indicator: TA100, Metabolic Activation: HAMSTER, LIVER, S-9, AROCLOR 1254 (10%), Method: PREINCUBATION inactive; negative | [3] inactive; negative | Test System: AMES SALMONELLA TYPHIMURIUM, Strain/Indicator: TA100, Metabolic Activation: RAT, LIVER, S-9, AROCLOR 1254 (10%), Method: PREINCUBATION inactive; negative | [5] inactive; negative
active: Test System: AMES SALMONELLA TYPHIMURIUM, Strain/Indicator: TA1535, Metabolic Activation: HAMSTER, LIVER, S-9, AROCLOR 1254 (10%), Method: PREINCUBATION active; positive | Test System: AMES SALMONELLA TYPHIMURIUM, Strain/Indicator: TA1535, Metabolic Activation: RAT, LIVER, S-9, AROCLOR 1254 (10%), Method: PREINCUBATION active; positive

Oc1ccc2c(O)cccc2c1
active: Test System: AMES SALMONELLA TYPHIMURIUM, Strain/Indicator: TA102, Metabolic Activation: NONE, Method: PREINCUBATION active; positive | Test System: AMES SALMONELLA TYPHIMURIUM, Strain/Indicator: TA2637, Metabolic Activation: RAT, LIVER, S-9, PHENOBARBITAL AND 5,6-BENZOFLAVONE, Method: PREINCUBATION active; positive

O=Nc1ccc(Sc2ccccc2)cc1
active: Test System: AMES SALMONELLA TYPHIMURIUM, Strain/Indicator: TA98(NR), Metabolic Activation: NONE, Method: STANDARD PLATE active; positive | [4] active; positive | [1] active; positive
